{"source": "patent US20240381872A1", "about": "“SUBSTITUTED 2,3-DIHYDRO[1,3]THIAZOLO[4,5-B]PYRIDINES, SALTS THEREOF AND THEIR USE AS HERBICIDALLY ACTIVE SUBSTANCES” (BAYER AKTIENGESELLSCHAFT, priority 2021, published 2024)", "format_in_all_cases": "in vivo", "key": {"[1]": {"tested_on": "Digitaria sanguinalis (DIGSA)", "assay": "Herbicidal pre-emergence action, section C (Table C12)", "conditions": "visual grading after ca. 3 weeks", "outline": "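Pre-emergence greenhouse test: visual percent damage scored about 3 weeks after treatment, relative to untreated pots (100% = dead, 0% = no effect). Formulated compounds (WP or EC, plus 0.5% additive) were applied in 600 l water/ha to the covering soil over seeds sown in sandy loam.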"}, "[2]": {"tested_on": "Lolium rigidum (LOLRI)", "assay": "Herbicidal pre-emergence action, section A (Table A5)", "conditions": "application rate 320 g/ha, visual grading after ca. 3 weeks vs untreated controls", "outline": "(§1)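 Sandy loam pots, seeds covered with soil, treated on the soil surface with aqueous WP or EC preparations containing 0.5% additive (600 l/ha). Visual damage rating after ca. 3 weeks in greenhouse; scale 0% (as control) to 100% (plants died off).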"}, "[3]": {"tested_on": "Stellaria media (STEME)", "assay": "Herbicidal pre-emergence action, section A (Table A9)", "conditions": "for pest or weed control at 1280 g/ha: Stellaria media, 504 h, read-out: pre-emergence activity against STEME in %", "outline": "as §1"}, "[4]": {"tested_on": "Setaria viridis (SETVI)", "assay": "Herbicidal post-emergence action, section B (Table B8)", "conditions": "application rate 1280 g/ha, visual rating about 3 weeks after treatment vs untreated controls", "outline": "(§2)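 Under optimum greenhouse conditions, sandy-loam-grown weeds at the one-leaf stage are sprayed with aqueous suspension or emulsion carrying 0.5% additive, 600 liters per hectare. About 3 weeks later, visual percent activity is scored relative to untreated controls.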"}, "[5]": {"tested_on": "Polygonum convolvulus (POLCO)", "assay": "Herbicidal post-emergence action, section E (Table E7)", "conditions": "visual assessment ca. 3 weeks after spraying", "excerpt": "Seeds of mono- and dicotyledonous weed plants and crop plants were sown, in plastic or organic planting pots, in sandy loam, covered with soil and grown in a greenhouse under controlled growth conditions. 2 to 3 weeks after sowing, the test plants were sprayed in the single-leaf stage. The compounds according to the invention, formulated in form of wettable powders (WP) or as emulsifiable concentrates (EC), were sprayed onto the green plant parts as aqueous suspension or emulsion, with the addition of 0.5% of an additive, at an application rate of 600 l of water/ha (converted). The test plants were placed in the greenhouse for ca. 3 weeks under optimum growth conditions, and then the effect of the preparations was assessed visually in comparison with untreated controls (herbicidal effect in percent (%): 100% effect=plants have died off, 0% effect=as control plants)."}, "[6]": {"tested_on": "Echinochloa crus-galli (ECHCG)", "assay": "Herbicidal post-emergence action, section B (Table B3)", "conditions": "rated visually after about 3 weeks; for pest or weed control at 1280 g/ha: Echinochloa crus-galli, 504 h, read-out: post-emergence activity against ECHCG in %", "outline": "as §2"}, "[7]": {"tested_on": "Veronica persica (VERPE)", "assay": "Herbicidal pre-emergence action, section C (Table C10)", "conditions": "visual grading after ca. 3 weeks", "excerpt": "Seeds of mono- and dicotyledonous weed plants and crop plants were sown, in plastic or organic planting pots, in sandy loam and covered with soil. The compounds according to the invention, formulated in the form of wettable powders (WP) or as emulsifiable concentrates (EC), were applied to the surface of the covering soil as aqueous suspension or emulsion, with the addition of 0.5% of an additive, at an application rate of 600 l of water/ha (converted). Following treatment, the pots were placed in a greenhouse and kept under optimum growth conditions for the test plants. The visual grading of the damage to the test plants was carried out after ca. 3 weeks in comparison to untreated controls (herbicidal effect in percent (%): 100% effect=plants have died off, 0% effect=as control plants)."}, "[8]": {"tested_on": "Triticum aestivum (TRZAS)", "assay": "Post-emergence effects on crop plants, section F (Table F2)", "conditions": "for post-emergence activity against TRZAS in %: crop plant damage; for percent crop plant damage (wheat, post-emergence) at 320 g/ha: Triticum aestivum, 504 h, read-out: post-emergence activity against TRZAS in %", "outline": "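Percent damage was rated by eye roughly 3 weeks after treatment against untreated plants, where 0% = as control and 100% = died off. Spraying used WP or EC formulations plus 0.5% additive at 600 l water/ha, with rates of 320 g/ha or less. Plants were at the single-leaf stage, sown 2-3 weeks earlier in sandy loam under greenhouse conditions.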"}, "[9]": {"tested_on": "Glycine max (GLXMA)", "assay": "Pre-emergence effects on crop plants, section D (Table D4)", "conditions": "visual grading after ca. 3 weeks", "outline": "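After sowing in sandy loam and covering with soil, pots receive compound applied to the soil surface at rates up to 320 g/ha in 600 l water/ha containing 0.5% additive. Plants then grow under optimum greenhouse conditions. Percent herbicidal effect is rated visually at roughly 3 weeks against untreated pots.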"}, "[10]": {"conditions": "Digitaria sanguinalis, pre-emergence, 504 h, application rate 80 g/ha, read-out: pre-emergence activity against DIGSA in %"}, "[11]": {"conditions": "Veronica persica, pre-emergence, 504 h, application rate 320 g/ha, read-out: pre-emergence activity against VERPE in %"}}, "data": [{"compound": "COC(=O)CCC(=O)N1CSc2cc(C)c(-c3ccccc3F)nc21", "note": "[Example I-010]", "values": [{"measurement": "pre-emergence activity against DIGSA in %", "setting": "[1]; application rate 80 g/ha", "result": 100, "unit": "%"}, {"measurement": "pre-emergence activity against LOLRI in %", "setting": "[2]", "result": 100, "unit": "%"}, {"measurement": "pre-emergence activity against STEME in %", "setting": "[3]; application rate 320 g/ha", "result": 100, "unit": "%"}, {"measurement": "post-emergence activity against SETVI in %", "setting": "[4]", "result": 90, "unit": "%"}, {"measurement": "post-emergence activity against POLCO in %", "setting": "[5]; application rate 320 g/ha", "result": 90, "unit": "%"}, {"measurement": "post-emergence activity against ECHCG in %", "setting": "[6]; application rate 1280 g/ha", "result": 90, "unit": "%"}, {"measurement": "pre-emergence activity against VERPE in %", "setting": "[7]; application rate 320 g/ha", "result": 90, "unit": "%"}]}, {"compound": "Cc1cc2c(nc1-c1ccccc1F)N(C(=O)C13CCCC1C(Cl)=NO3)CS2", "note": "(stereo not shown) [Example I-104]", "values": [{"measurement": "pre-emergence activity against DIGSA in %", "setting": "[1]; application rate 80 g/ha", "result": 100, "unit": "%"}, {"measurement": "pre-emergence activity against LOLRI in %", "setting": "[2]", "result": 100, "unit": "%"}, {"measurement": "pre-emergence activity against STEME in %", "setting": "[3]; application rate 320 g/ha", "result": 90, "unit": "%"}, {"measurement": "post-emergence activity against SETVI in %", "setting": "[4]", "result": 90, "unit": "%"}, {"measurement": "post-emergence activity against TRZAS in %", "setting": "[8]; application rate 80 g/ha", "result": 0, "unit": "%"}, {"measurement": "post-emergence activity against POLCO in %", "setting": "[5]; application rate 320 g/ha", "result": 90, "unit": "%"}, {"measurement": "post-emergence activity against ECHCG in %", "setting": "[6]; application rate 320 g/ha", "result": 90, "unit": "%"}]}, {"compound": "COCC1(C(=O)N2CSc3cc(C)c(-c4ccccc4F)nc32)CC(Cl)=NO1", "note": "(stereo not shown) [Example I-128]", "values": [{"measurement": "pre-emergence activity against DIGSA in %", "setting": "[1]; application rate 80 g/ha", "result": 100, "unit": "%"}, {"measurement": "pre-emergence activity against LOLRI in %", "setting": "[2]", "result": 100, "unit": "%"}, {"measurement": "pre-emergence activity against STEME in %", "setting": "[3]; application rate 320 g/ha", "result": 90, "unit": "%"}, {"measurement": "post-emergence activity against SETVI in %", "setting": "[4]", "result": 90, "unit": "%"}, {"measurement": "post-emergence activity against POLCO in %", "setting": "[5]; application rate 80 g/ha", "result": 90, "unit": "%"}, {"measurement": "post-emergence activity against ECHCG in %", "setting": "[6]; application rate 320 g/ha", "result": 90, "unit": "%"}, {"measurement": "pre-emergence activity against VERPE in %", "setting": "[7]; application rate 80 g/ha", "result": 80, "unit": "%"}]}, {"compound": "Cc1cc2c(nc1-c1ccccc1F)NCS2", "note": "[Example I-007, 5-(2-fluorophenyl)-6-methyl-2,3-dihydro[1,3]thiazolo[4,5-b]pyridine]", "values": [{"measurement": "pest or weed control at 80 g/ha", "setting": "[1]; [10]", "result": 100, "unit": "%"}, {"measurement": "pest or weed control at 320 g/ha", "setting": "[2]; Lolium rigidum, pre-emergence, 504 h, read-out: pre-emergence activity against LOLRI in %", "result": 100, "unit": "%"}, {"measurement": "pest or weed control at 1280 g/ha", "setting": "[3]; application rate 1280 g/ha", "result": 90, "unit": "%"}, {"measurement": "pest or weed control at 1280 g/ha", "setting": "[4]; Setaria viridis, post-emergence, 504 h, read-out: post-emergence activity against SETVI in %", "result": 90, "unit": "%"}, {"measurement": "pest or weed control at 80 g/ha", "setting": "[5]; Fallopia convolvulus, 504 h, application rate 80 g/ha, read-out: post-emergence activity against POLCO in %", "result": 90, "unit": "%"}, {"measurement": "pest or weed control at 1280 g/ha", "setting": "[6]; application rate 1280 g/ha", "result": 90, "unit": "%"}, {"measurement": "pest or weed control at 320 g/ha", "setting": "[7]; [11]", "result": 80, "unit": "%"}]}, {"compound": "CC(C)C(=O)N1C[S+]([O-])c2cc(Br)c(-c3ccccc3)nc21", "note": "(stereo not shown) [Example I-067]", "values": [{"measurement": "pre-emergence activity against GLXMA in % (crop plant damage)", "setting": "[9]; application rate 80 g/ha", "result": 20, "unit": "%"}, {"measurement": "pest or weed control at 320 g/ha", "setting": "[1]; Digitaria sanguinalis, pre-emergence, 504 h, application rate 320 g/ha, read-out: pre-emergence activity against DIGSA in %", "result": 100, "unit": "%"}, {"measurement": "percent crop plant damage (wheat, post-emergence) at 320 g/ha", "setting": "[8]; application rate 320 g/ha", "result": 0, "unit": "%"}, {"measurement": "pest or weed control at 320 g/ha", "setting": "[7]; [11]", "result": 80, "unit": "%"}]}, {"compound": "COC(=O)CCC(=O)N1CSc2cc(Cl)c(-c3ccccc3F)nc21", "note": "[Example I-003]", "values": [{"measurement": "pre-emergence activity against DIGSA in %", "setting": "[1]; application rate 320 g/ha", "result": 90, "unit": "%"}, {"measurement": "pre-emergence activity against LOLRI in %", "setting": "[2]", "result": 100, "unit": "%"}, {"measurement": "pre-emergence activity against STEME in %", "setting": "[3]; application rate 1280 g/ha", "result": 90, "unit": "%"}, {"measurement": "post-emergence activity against SETVI in %", "setting": "[4]", "result": 90, "unit": "%"}, {"measurement": "post-emergence activity against TRZAS in %", "setting": "[8]; application rate 320 g/ha", "result": 0, "unit": "%"}]}, {"compound": "CCc1ccccc1-c1nc2c(cc1C)[S+]([O-])CN2", "note": "(stereo not shown) [Example I-047]", "values": [{"measurement": "pre-emergence activity against GLXMA in % (crop plant damage)", "setting": "[9]; application rate 320 g/ha", "result": 20, "unit": "%"}, {"measurement": "pest or weed control at 80 g/ha", "setting": "[1]; [10]", "result": 90, "unit": "%"}, {"measurement": "pest or weed control at 1280 g/ha", "setting": "[3]; application rate 1280 g/ha", "result": 90, "unit": "%"}, {"measurement": "percent crop plant damage (wheat, post-emergence) at 320 g/ha", "setting": "[8]; application rate 320 g/ha", "result": 0, "unit": "%"}, {"measurement": "pest or weed control at 1280 g/ha", "setting": "[6]; application rate 1280 g/ha", "result": 90, "unit": "%"}, {"measurement": "pest or weed control at 80 g/ha", "setting": "[7]; Veronica persica, pre-emergence, 504 h, application rate 80 g/ha, read-out: pre-emergence activity against VERPE in %", "result": 80, "unit": "%"}]}]}
